Where no end group is shown, it is not given here.
Experiments:
MRSA 1530 = test: microbe, parasite or virus in culture; format: cell-based, Staphylococcus aureus; conditions: 1530
Description: (§1) S. aureus ATCC 29213, E. coli ATCC 25922, S. enteritidis ATCC 13076 and A. baumannii ATCC 19609 were obtained from the American Type Culture Collection (ATCC). The remaining strains used in the experiment were all preserved strains in our laboratory. All strains were cultured in nutrient broth overnight to the logarithmic phase at 37 °C prior to each experiment.
(§2) The MICs of all drugs were determined by micro-broth dilution method according to CLSI 2018 guidelines. Briefly, a single colony of the bacterial strain was transferred to 1 mL of Mueller Hilton broth (MHB) and overnight at 37 °C and then 10 μL were cultured in a new 1 mL medium for 4 to 6 h, and then the bacterial culture at the logarithmic phase was diluted to 1 × 10^6 CFUs/mL. The assay was performed by adding 100 μL of each peptide solution at various concentrations (0.25 to 128 μg/mL) and 100 μL of diluted bacterial culture to different wells of a 96-well microtiter plate (Corning, NY, USA). After incubation at 37 °C for 16 to 18 h and then read its MIC value. MIC value is defined as the lowest drug concentration without visible bacteria.

MRSA T144 [1] = test: microbe, parasite or virus in culture; format: cell-based, Staphylococcus aureus; conditions: T144
Description: as §1, §2

A. baumannii ATCC 19609 = test: microbe, parasite or virus in culture; format: cell-based; conditions: ATCC 19609
Description: as §1, §2

E. coli 1F28 (tet(X4)) = test: microbe, parasite or virus in culture; format: cell-based; conditions: 1F28 (tet(X4))
Description: as §1, §2

E. coli ATCC 25922 = test: microbe, parasite or virus in culture; format: cell-based; conditions: ATCC 25922
Description: as §1, §2

[2] = test system: E. coli B2 (blaNDM-5 + mcr-1); test: microbe, parasite or virus in culture; format: cell-based; conditions: B2 (blaNDM-5 + mcr-1)
Description: as §1, §2

E. coli B3-1 (tet(X4)) = test: microbe, parasite or virus in culture; format: cell-based; conditions: B3-1 (tet(X4))
Description: as §1, §2

E. coli C3 (blaNDM-1) = test: microbe, parasite or virus in culture; format: cell-based; conditions: C3 (blaNDM-1)
Description: as §1, §2

E. coli CP131 (mcr-3) = test: microbe, parasite or virus in culture; format: cell-based; conditions: CP131 (mcr-3)
Description: as §1, §2

E. coli G6 (blaNDM-5) = test: microbe, parasite or virus in culture; format: cell-based; conditions: G6 (blaNDM-5)
Description: as §1, §2

E. coli G92 (mcr-1) = test: microbe, parasite or virus in culture; format: cell-based; conditions: G92 (mcr-1)
Description: as §1, §2

[3] = test system: E. faecalis A4 (VRE, VanA); test: microbe, parasite or virus in culture; format: cell-based; conditions: A4 (VRE, VanA)
Description: as §1, §2

[4] = test system: P. aeruginosa (VIM + tmexCD1-torJ1); test: microbe, parasite or virus in culture; format: cell-based; conditions: VIM + tmexCD1-torJ1
Description: as §1, §2

P. aeruginosa PA14 = test: microbe, parasite or virus in culture; format: cell-based; conditions: PA14
Description: as §1, §2

[5] = test system: S. aureus 215 (cfr + LZD^R); test: microbe, parasite or virus in culture; format: cell-based; conditions: S. aureus 215 (cfr + LZD^R); micro-broth dilution CLSI 2018, MHB, 37 °C, 16 to 18 h
Description: as §1, §2

S. aureus ATCC 29213 = test: microbe, parasite or virus in culture; format: cell-based; conditions: ATCC 29213
Description: as §1, §2

S. aureus G16 (RIF^R) = test: microbe, parasite or virus in culture; format: cell-based; conditions: S. aureus G16 (RIF^R); micro-broth dilution CLSI 2018, MHB, 37 °C, 16 to 18 h
Description: as §1, §2

[6] = test system: S. enteritidis ATCC 13076; test: microbe, parasite or virus in culture; format: cell-based; conditions: ATCC 13076
Description: as §1, §2

[7] = test system: P. cibarius HNCF44W (blaNDM-1+ tet(X6)); test: organism not typed; format: cell-based
Description: as §1, §2

MRSA T144 [8] = format: cell-based, Staphylococcus aureus
Description: as §2
(§3) Then, the antibacterial activity of the peptides affected by different temperatures and pH were determined according to the determination steps of MICs test.
(§4) In MHB medium, Na^+, K^+, Mg^2+ and Ca^2+ with the final concentrations of 10 mM, fetal bovine serum, plasma or DMEM medium (Hyclone, Logan, UT, USA) with the final concentrations of 10% was added, and then MIC values were measured to evaluate the effects of different cations, serum and plasma on the antibacterial activity of peptides.
(§5) The peptide was incubated with protease (pepsin, trypsin and papain) (Solarbio, Beijing, China) with a final concentration of 1 mg/mL at 37 °C for 1 h, then the mixture of peptide and protease was heated at 100 °C for 30 min, then centrifuged at 13,000× g for 30 min, and the supernatant was taken for MIC determination.

E. coli B2 = format: cell-based
Description: as §2, §3, §4, §5

## GWKKFFKKWKHVWK [GK-4]
MRSA 1530
  MIC: 16 µg/mL
MRSA T144 [1]
  MIC: 4 µg/mL
A. baumannii ATCC 19609
  MIC: 4 µg/mL
E. coli 1F28 (tet(X4))
  MIC: 16 µg/mL
E. coli ATCC 25922
  MIC: 8 µg/mL
[2]
  MIC: 2 µg/mL
E. coli B3-1 (tet(X4))
  MIC: 4 µg/mL
E. coli C3 (blaNDM-1)
  MIC: 2 µg/mL
E. coli CP131 (mcr-3)
  MIC: 2 µg/mL
E. coli G6 (blaNDM-5)
  MIC: 4 µg/mL
E. coli G92 (mcr-1)
  MIC: 4 µg/mL
[3]
  MIC: 16 µg/mL
[4]
  MIC: 16 µg/mL
P. aeruginosa PA14
  MIC: 16 µg/mL
[5]
  MIC: 8 µg/mL
S. aureus ATCC 29213
  MIC: 4 µg/mL
S. aureus G16 (RIF^R)
  MIC: 8 µg/mL
[6]
  MIC: 4 µg/mL
[7]
  MIC: 4 µg/mL
MRSA T144 [8]; T144
  MIC after treatment at 121 °C: 4 µg/mL
  MIC in DMEM (10%): 2 µg/mL
  MIC in Plasma (10%): 4 µg/mL
  MIC in Serum (10%): 8 µg/mL
  MIC in presence of Ca^2+: >128 µg/mL
  MIC in presence of K^+: 4 µg/mL
  MIC in presence of Mg^2+: 8 µg/mL
  MIC in presence of Na^+: 2 µg/mL
  MIC, Control: 4 µg/mL
MRSA T144 [8]; T144, 1 h
  MIC after Papain treatment: >128 µg/mL
  MIC after Trypsin treatment: >128 µg/mL
  MIC after treatment at 40 °C: 2 µg/mL
  MIC after treatment at 60 °C: 2 µg/mL
  MIC after treatment at 80 °C: 2 µg/mL
  MIC after treatment at 100 °C: 4 µg/mL
MRSA T144 [8]; T144, 1 h, pH 2
  MIC after treatment at pH 2: 4 µg/mL
MRSA T144 [8]; T144, 1 h, pH 4
  MIC after treatment at pH 4: 4 µg/mL
MRSA T144 [8]; T144, 1 h, pH 6
  MIC after treatment at pH 6: 4 µg/mL
MRSA T144 [8]; T144, 1 h, pH 8
  MIC after treatment at pH 8: 4 µg/mL
MRSA T144 [8]; T144, 1 h, pH 10
  MIC after treatment at pH 10: 4 µg/mL
MRSA T144 [8]; T144, 1 h, pH 12
  MIC after treatment at pH 12: 4 µg/mL
E. coli B2; B2
  MIC after treatment at 121 °C: 2 µg/mL
  MIC in DMEM (10%): 4 µg/mL
  MIC in Plasma (10%): 2 µg/mL
  MIC in Serum (10%): 4 µg/mL
  MIC in presence of Ca^2+: >128 µg/mL
  MIC in presence of K^+: 2 µg/mL
  MIC in presence of Mg^2+: 32 µg/mL
  MIC in presence of Na^+: 2 µg/mL
  MIC, Control: 2 µg/mL
E. coli B2; B2, 1 h
  MIC after Papain treatment: >128 µg/mL
  MIC after Pepsin treatment: 2 µg/mL
  MIC after Trypsin treatment: >128 µg/mL
  MIC after treatment at 40 °C: 2 µg/mL
  MIC after treatment at 60 °C: 2 µg/mL
  MIC after treatment at 80 °C: 2 µg/mL
  MIC after treatment at 100 °C: 2 µg/mL
E. coli B2; B2, 1 h, pH 2
  MIC after treatment at pH 2: 1 µg/mL
E. coli B2; B2, 1 h, pH 4
  MIC after treatment at pH 4: 1 µg/mL
E. coli B2; B2, 1 h, pH 6
  MIC after treatment at pH 6: 2 µg/mL
E. coli B2; B2, 1 h, pH 8
  MIC after treatment at pH 8: 1 µg/mL
E. coli B2; B2, 1 h, pH 10
  MIC after treatment at pH 10: 1 µg/mL
E. coli B2; B2, 1 h, pH 12
  MIC after treatment at pH 12: 2 µg/mL

Reference: article PMC9610943, “Truncated Pleurocidin Derivative with High Pepsin Hydrolysis Resistance to Combat Multidrug-Resistant Pathogens” (Pharmaceutics, 2022)
